Laboratory results as given in ChEMBL document CHEMBL2218064, “Structure-activity relationship data for chemical series of antagonists of the P2X7 receptor (Supplementary Bioactivity Data for publication CHEMBL1157114)”.

Target: T1, P2X purinoceptor 7 (Homo sapiens, UniProt Q99572)
T1 sequence (Q99572 whole entry): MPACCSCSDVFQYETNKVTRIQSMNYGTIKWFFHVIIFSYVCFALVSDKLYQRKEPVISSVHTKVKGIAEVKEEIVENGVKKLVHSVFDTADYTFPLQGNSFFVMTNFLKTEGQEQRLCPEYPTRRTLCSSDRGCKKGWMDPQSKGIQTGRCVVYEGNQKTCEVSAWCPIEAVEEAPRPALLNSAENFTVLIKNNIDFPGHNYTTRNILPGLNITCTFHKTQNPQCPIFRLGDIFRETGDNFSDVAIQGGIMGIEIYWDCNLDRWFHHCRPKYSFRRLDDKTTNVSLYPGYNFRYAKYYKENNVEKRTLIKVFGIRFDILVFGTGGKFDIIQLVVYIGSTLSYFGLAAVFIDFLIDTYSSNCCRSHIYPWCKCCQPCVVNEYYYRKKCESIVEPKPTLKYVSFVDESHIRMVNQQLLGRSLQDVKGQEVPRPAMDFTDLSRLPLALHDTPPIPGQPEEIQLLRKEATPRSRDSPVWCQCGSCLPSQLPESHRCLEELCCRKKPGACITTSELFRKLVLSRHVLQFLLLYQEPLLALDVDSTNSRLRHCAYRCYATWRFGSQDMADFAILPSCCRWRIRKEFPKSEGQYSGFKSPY
Test: SUPPLEMENTARY: Inhibition of human P2X7 receptor assessed as inhibition of ethidium bromide accumulation. Same assay as CHEMBL1103860

Row | IC50 [nM] | Compound
1 | 158 | CCOc1ccc(-n2nc(C)c(CC(=O)NCc3ccc(F)cc3Cl)c2C)cc1
2 | 100 | Cc1nn(-c2ccccn2)c(C)c1CC(=O)NCc1ccc(F)cc1Cl
3 | 251 | Cc1c(CC(=O)NCc2ccc(F)cc2Cl)c(C(C)C)nn1-c1ccccc1
4 | 631 | Cc1nn(-c2ccccc2)c(C(C)C)c1CC(=O)NCc1ccc(F)cc1Cl
5 | 63.1 | Cc1nn(-c2ccc(N3CCCC3=O)cc2)c(C)c1CC(=O)NCc1ccc(F)cc1Cl
6 | 794 | Cc1nn(-c2ccc(C#N)cn2)c(C)c1CC(=O)NCc1ccc(F)cc1Cl
7 | 200 | Cc1nn(-c2ncc(Cl)cc2Cl)c(C)c1CC(=O)NCc1ccc(F)cc1Cl
8 | 63.1 | Cc1nn(-c2ccncc2)c(C)c1CC(=O)NCc1ccc(F)cc1Cl
9 | 251 | Cc1nn(-c2ccc(Cl)cn2)c(C)c1CC(=O)NCc1ccc(F)cc1Cl
10 | 316 | Cc1nn(-c2nccs2)c(C)c1CC(=O)NCc1ccc(F)cc1Cl
11 | 158 | Cc1nn(-c2ccccc2)c(C)c1CC(=O)NCc1ccc(Cl)c(Cl)c1
12 | 316 | Cc1nn(-c2ccccc2)c(C)c1CC(=O)NCc1ccc(F)c(C(F)(F)F)c1
